From publication PMC5218480 (PLoS ONE, 2017)

System: MV-4-11 cells
Assay: Gene expression microarray analysis (Affymetrix PrimeView) and GSEA
Format: cell-based, human
Parameters: RFU PODN (11730768_x_at) / Fold change /veh PODN (11730768_x_at) / RFU LINC00158 (11744669_a_at) / Fold change /veh LINC00158 (11744669_a_at) / RFU DUSP10 (11751237_a_at) / Fold change /veh DUSP10 (11751237_a_at) / RFU ID3 (11757404_x_at) / Fold change /veh ID3 (11757404_x_at) / RFU PLEKHG5 (11737974_s_at) / Fold change /veh PLEKHG5 (11737974_s_at) / RFU LRRC4B (11730491_at) / Fold change /veh LRRC4B (11730491_at) / RFU GIMAP4 (11747438_a_at) / Fold change /veh GIMAP4 (11747438_a_at) / RFU KRT8 (11758183_x_at) / Fold change /veh KRT8 (11758183_x_at) / RFU CNN1 (11734310_a_at) / Fold change /veh CNN1 (11734310_a_at) / RFU VPS37D (11726825_at) / Fold change /veh VPS37D (11726825_at) / RFU C10orf10 (11716522_x_at) / Fold change /veh C10orf10 (11716522_x_at) / RFU KIR2DL2 /// KIR2DL4 /// KIR2DL5A /// KIR2DL5B /// KIR2DS1 /// KIR2DS2 /// KIR2DS3 /// KIR2DS4 /// KIR3DL3 /// KIR3DL3 /// KIR3DS1 (11738374_at) / Fold change /veh KIR2DL2 /// KIR2DL4 /// KIR2DL5A /// KIR2DL5B /// KIR2DS1 /// KIR2DS2 /// KIR2DS3 /// KIR2DS4 /// KIR3DL3 /// KIR3DL3 /// KIR3DS1 (11738374_at) / RFU C1QL1 (11718748_at) / Fold change /veh C1QL1 (11718748_at) / RFU TMPRSS4 (11747572_a_at) / Fold change /veh TMPRSS4 (11747572_a_at) / RFU HAMP (11756126_x_at) / Fold change /veh HAMP (11756126_x_at) / RFU RNFT2 (11725882_a_at) / Fold change /veh RNFT2 (11725882_a_at) / RFU NR4A2 (11747474_a_at) / Fold change /veh NR4A2 (11747474_a_at) / RFU ABCC12 (11746883_a_at) / Fold change /veh ABCC12 (11746883_a_at) / RFU TMEM136 (11760407_x_at) / Fold change /veh TMEM136 (11760407_x_at) / RFU CLDN22 /// WWC2 (11732394_at) / Fold change /veh CLDN22 /// WWC2 (11732394_at) / RFU HLA-DPB1 (11760878_x_at) / Fold change /veh HLA-DPB1 (11760878_x_at) / RFU SPINT1 (11716480_a_at) / Fold change /veh SPINT1 (11716480_a_at) / RFU GAP43 (11754022_s_at) / Fold change /veh GAP43 (11754022_s_at) / RFU A4GNT (11735810_at) / Fold change /veh A4GNT (11735810_at) / RFU PRB3 (11715151_x_at) / Fold change /veh PRB3 (11715151_x_at) / RFU TUBB4B (11761932_at) / Fold change /veh TUBB4B (11761932_at) / RFU CAPN14 (11732068_a_at) / Fold change /veh CAPN14 (11732068_a_at) / RFU TMCC2 (11721928_a_at) / Fold change /veh TMCC2 (11721928_a_at) / RFU IRGQ (11745062_a_at) / Fold change /veh IRGQ (11745062_a_at) / RFU FAM174B (11720279_a_at) / Fold change /veh FAM174B (11720279_a_at) / RFU TMPRSS4 (11748680_a_at) / Fold change /veh TMPRSS4 (11748680_a_at) / RFU FAM212B (11763350_a_at) / Fold change /veh FAM212B (11763350_a_at) / RFU PLEKHG5 (11743358_a_at) / Fold change /veh PLEKHG5 (11743358_a_at) / RFU ZSCAN30 (11745921_a_at) / Fold change /veh ZSCAN30 (11745921_a_at) / RFU CMKLR1 (11741424_a_at) / Fold change /veh CMKLR1 (11741424_a_at) / RFU LOC101060620 /// MAPK8IP1 (11723275_at) / Fold change /veh LOC101060620 /// MAPK8IP1 (11723275_at) / RFU SPTSSB (11747773_x_at) / Fold change /veh SPTSSB (11747773_x_at) / RFU PRSS12 (11739890_at) / Fold change /veh PRSS12 (11739890_at) / RFU BIN1 (11741810_x_at) / Fold change /veh BIN1 (11741810_x_at) / RFU WNT11 (11732464_a_at) / Fold change /veh WNT11 (11732464_a_at) / RFU C10orf10 (11716521_a_at) / Fold change /veh C10orf10 (11716521_a_at) / RFU C5orf56 (11738089_at) / Fold change /veh C5orf56 (11738089_at) / RFU CYB561 (11721691_x_at) / Fold change /veh CYB561 (11721691_x_at) / RFU ANKRD19P (11752326_a_at) / Fold change /veh ANKRD19P (11752326_a_at) / RFU OR2T12 /// OR2T33 /// OR2T8 (11738714_s_at) / Fold change /veh OR2T12 /// OR2T33 /// OR2T8 (11738714_s_at) / RFU VCAN (11748164_a_at) / Fold change /veh VCAN (11748164_a_at) / RFU JSRP1 (11732532_at) / Fold change /veh JSRP1 (11732532_at) / RFU KRTAP10-11 (11738290_x_at) / Fold change /veh KRTAP10-11 (11738290_x_at) / RFU MYO3A (11730013_a_at) / Fold change /veh MYO3A (11730013_a_at) / RFU EBF3 (11725865_a_at) / Fold change /veh EBF3 (11725865_a_at) / RFU CAMK2N1 (11719241_x_at) / Fold change /veh CAMK2N1 (11719241_x_at) / RFU C5orf56 (11738088_a_at) / Fold change /veh C5orf56 (11738088_a_at) / RFU OLFML3 (11715873_a_at) / Fold change /veh OLFML3 (11715873_a_at) / RFU LOC100653217 /// NTM (11731650_a_at) / Fold change /veh LOC100653217 /// NTM (11731650_a_at) / RFU MAPK11 (11762145_a_at) / Fold change /veh MAPK11 (11762145_a_at) / RFU FIZ1 (11724087_x_at) / Fold change /veh FIZ1 (11724087_x_at) / RFU OASL (11726364_x_at) / Fold change /veh OASL (11726364_x_at) / RFU SOX15 (11748057_x_at) / Fold change /veh SOX15 (11748057_x_at) / RFU CD79A (11719716_a_at) / Fold change /veh CD79A (11719716_a_at) / RFU HIST1H1D (11736915_at) / Fold change /veh HIST1H1D (11736915_at) / RFU CASKIN2 (11723855_a_at) / Fold change /veh CASKIN2 (11723855_a_at) / RFU LOC730098 (11760151_x_at) / Fold change /veh LOC730098 (11760151_x_at) / RFU OR4N2 (11742367_at) / Fold change /veh OR4N2 (11742367_at) / RFU PRRT2 (11749266_a_at) / Fold change /veh PRRT2 (11749266_a_at) / RFU SNX32 (11753110_a_at) / Fold change /veh SNX32 (11753110_a_at) / RFU CDHR5 (11726645_a_at) / Fold change /veh CDHR5 (11726645_a_at) / RFU RCAN1 (11760418_a_at) / Fold change /veh RCAN1 (11760418_a_at) / RFU FAM167A (11723789_a_at) / Fold change /veh FAM167A (11723789_a_at) / RFU FAM26E (11764081_at) / Fold change /veh FAM26E (11764081_at) / RFU ISYNA1 (11749810_s_at) / Fold change /veh ISYNA1 (11749810_s_at) / RFU ACY1 (11761880_at) / Fold change /veh ACY1 (11761880_at) / RFU 11764098_at / Fold change /veh 11764098_at / RFU SAMD14 (11745864_x_at) / Fold change /veh SAMD14 (11745864_x_at) / RFU NPB (11741838_a_at) / Fold change /veh NPB (11741838_a_at) / RFU TMPRSS6 (11731388_a_at) / Fold change /veh TMPRSS6 (11731388_a_at) / RFU KRTAP10-2 (11738614_at) / Fold change /veh KRTAP10-2 (11738614_at) / RFU ARHGAP8 /// PRR5-ARHGAP8 (11727945_x_at) / Fold change /veh ARHGAP8 /// PRR5-ARHGAP8 (11727945_x_at) / RFU KRTAP5-7 /// NADSYN1 (11734609_at) / Fold change /veh KRTAP5-7 /// NADSYN1 (11734609_at) / RFU RASL12 (11751679_a_at) / Fold change /veh RASL12 (11751679_a_at) / RFU CDKN2B (11736163_a_at) / Fold change /veh CDKN2B (11736163_a_at) / RFU PRF1 (11729649_at) / Fold change /veh PRF1 (11729649_at) / RFU, ZNF638 /// ZNF638-IT1 / Fold change vs veh, ZNF638 /// ZNF638-IT1 / RFU, PANK3 / Fold change vs veh, PANK3 / RFU, SH3YL1 / Fold change vs veh, SH3YL1 / RFU, ZEB2 / Fold change vs veh, ZEB2 / RFU, NRIP1 / Fold change vs veh, NRIP1 / RFU, PTTG1IP / Fold change vs veh, PTTG1IP / RFU, CAPN2 / Fold change vs veh, CAPN2 / RFU, MED14 / Fold change vs veh, MED14 / RFU, SNORA58 / Fold change vs veh, SNORA58 / RFU, C1orf63 / Fold change vs veh, C1orf63 / RFU, LRRFIP1 / Fold change vs veh, LRRFIP1 / RFU, NDUFAF7 / Fold change vs veh, NDUFAF7 / RFU, SLC12A2 / Fold change vs veh, SLC12A2 / RFU, IBTK / Fold change vs veh, IBTK / RFU, ESF1 / Fold change vs veh, ESF1 / Fold change vs veh, TMEM50B / RFU, TAOK1 / Fold change vs veh, TAOK1 / RFU, ACBD3 / Fold change vs veh, ACBD3 / RFU, TMA16 / Fold change vs veh, TMA16 / RFU, RWDD3 / Fold change vs veh, RWDD3 / RFU, BCAT1 / Fold change vs veh, BCAT1 / RFU, EDEM3 / Fold change vs veh, EDEM3 / RFU, TMEM33 / Fold change vs veh, TMEM33 / RFU, WDR75 / Fold change vs veh, WDR75 / RFU, AHCTF1 / Fold change vs veh, AHCTF1 / RFU, TFRC / Fold change vs veh, TFRC / RFU, ZDHHC17 / Fold change vs veh, ZDHHC17 / RFU, NOM1 / Fold change vs veh, NOM1 / RFU, ARL8B / Fold change vs veh, ARL8B / RFU, ZBTB11 / Fold change vs veh, ZBTB11 / RFU, TAMM41 / Fold change vs veh, TAMM41 / RFU, KIAA1704 /// LOC100996395 / Fold change vs veh, KIAA1704 /// LOC100996395 / RFU, ING1 / Fold change vs veh, ING1 / RFU, TRMT61B / Fold change vs veh, TRMT61B / RFU, FUBP3 / Fold change vs veh, FUBP3 / RFU, TP53 / Fold change vs veh, TP53 / RFU, TNKS2 / Fold change vs veh, TNKS2 / RFU, ZFP14 / Fold change vs veh, ZFP14 / RFU, ACTR2 / Fold change vs veh, ACTR2 / RFU, PPP3R1 / Fold change vs veh, PPP3R1 / RFU, PIK3R1 / Fold change vs veh, PIK3R1 / RFU, HNRNPA1 / Fold change vs veh, HNRNPA1 / RFU, RNF170 / Fold change vs veh, RNF170 / RFU, ZNF28 / Fold change vs veh, ZNF28 / RFU, RNGTT / Fold change vs veh, RNGTT / RFU, OGT / Fold change vs veh, OGT / RFU, BRD1 / Fold change vs veh, BRD1 / RFU, MARS / Fold change vs veh, MARS / RFU, ZNF655 / Fold change vs veh, ZNF655 / RFU, FAHD1 / Fold change vs veh, FAHD1 / RFU, BDP1 / Fold change vs veh, BDP1 / RFU, LRRCC1 / Fold change vs veh, LRRCC1 / RFU, ARID1A / Fold change vs veh, ARID1A / RFU, ZNF146 / Fold change vs veh, ZNF146 / RFU, ZNF330 / Fold change vs veh, ZNF330 / RFU, GPN3 / Fold change vs veh, GPN3 / RFU, C9orf123 / Fold change vs veh, C9orf123 / RFU, N4BP2L2 / Fold change vs veh, N4BP2L2 / RFU, ARFIP1 / Fold change vs veh, ARFIP1 / RFU, FAM179B / Fold change vs veh, FAM179B / RFU, BCL10 / Fold change vs veh, BCL10 / RFU, UHRF1BP1L / Fold change vs veh, UHRF1BP1L / RFU, BET1 / Fold change vs veh, BET1 / RFU, CNOT2 / Fold change vs veh, CNOT2 / RFU, ZNF268 / Fold change vs veh, ZNF268 / Fold change vs veh, ZNF507 / RFU, DGCR2 / Fold change vs veh, DGCR2 / RFU, WDSUB1 / Fold change vs veh, WDSUB1 / Fold change vs veh, HSP90B1 /// MIR3652 / RFU, ADSS / Fold change vs veh, ADSS / RFU, GK / Fold change vs veh, GK / RFU, ZNF148 / Fold change vs veh, ZNF148 / RFU, TAF9 / Fold change vs veh, TAF9 / RFU, SLC1A5 / Fold change vs veh, SLC1A5 / RFU, SLMO2 / Fold change vs veh, SLMO2 / RFU, ABCC4 / Fold change vs veh, ABCC4 / RFU, LOC101060439 /// RAP1B / Fold change vs veh, LOC101060439 /// RAP1B / RFU, RFX7 / Fold change vs veh, RFX7 / RFU, GTPBP10 / Fold change vs veh, GTPBP10 / RFU, CNEP1R1 / Fold change vs veh, CNEP1R1 / RFU, BIVM-ERCC5 /// ERCC5 / Fold change vs veh, BIVM-ERCC5 /// ERCC5 / RFU, ILF3 / Fold change vs veh, ILF3 / RFU 11762660_at / Fold change /veh 11762660_at / RFU VCAN (11757783_s_at) / Fold change /veh VCAN (11757783_s_at) / RFU DDX43 (11728927_at) / Fold change /veh DDX43 (11728927_at) / RFU KRT8 (11758188_x_at) / Fold change /veh KRT8 (11758188_x_at) / RFU NKD1 (11759106_at) / Fold change /veh NKD1 (11759106_at) / RFU SRD5A1 (11742802_a_at) / Fold change /veh SRD5A1 (11742802_a_at) / RFU TPSAB1 /// TPSB2 (11721975_s_at) / Fold change /veh TPSAB1 /// TPSB2 (11721975_s_at) / RFU GSTM3 (11746129_a_at) / Fold change /veh GSTM3 (11746129_a_at) / RFU IL23R (11737362_x_at) / Fold change /veh IL23R (11737362_x_at) / RFU TMEM51 (11727254_a_at) / Fold change /veh TMEM51 (11727254_a_at) / RFU PIWIL2 (11732686_x_at) / Fold change /veh PIWIL2 (11732686_x_at) / RFU ORM1 (11744905_x_at) / Fold change /veh ORM1 (11744905_x_at) / RFU CCDC152 (11743942_at) / Fold change /veh CCDC152 (11743942_at) / RFU ECM1 (11717891_a_at) / Fold change /veh ECM1 (11717891_a_at) / RFU IL23R (11748794_a_at) / Fold change /veh IL23R (11748794_a_at) / RFU TNFAIP8L3 (11732012_x_at) / Fold change /veh TNFAIP8L3 (11732012_x_at) / RFU MBOAT4 (11741988_at) / Fold change /veh MBOAT4 (11741988_at) / RFU 11764193_at / Fold change /veh 11764193_at / RFU TMEM53 (11763286_at) / Fold change /veh TMEM53 (11763286_at) / RFU MAGEB2 (11727129_at) / Fold change /veh MAGEB2 (11727129_at) / RFU TMEM200A (11744735_a_at) / Fold change /veh TMEM200A (11744735_a_at) / RFU CCDC152 (11751479_a_at) / Fold change /veh CCDC152 (11751479_a_at) / RFU FAM211A (11726209_a_at) / Fold change /veh FAM211A (11726209_a_at) / RFU RGS16 (11746705_a_at) / Fold change /veh RGS16 (11746705_a_at) / RFU VCAN (11755009_s_at) / Fold change /veh VCAN (11755009_s_at) / RFU RHOB (11743442_s_at) / Fold change /veh RHOB (11743442_s_at) / RFU RGS16 (11720943_a_at) / Fold change /veh RGS16 (11720943_a_at) / RFU RGS16 (11720944_at) / Fold change /veh RGS16 (11720944_at) / RFU, VPS4B / Fold change vs veh, VPS4B / RFU, CREB1 / Fold change vs veh, CREB1 / RFU, DNAJC13 / Fold change vs veh, DNAJC13 / RFU, GNAQ / Fold change vs veh, GNAQ / RFU, CDK5R1 / Fold change vs veh, CDK5R1 / RFU, ZRANB3 / Fold change vs veh, ZRANB3 / RFU, CUL4A / Fold change vs veh, CUL4A / RFU, CCNY / Fold change vs veh, CCNY / RFU, UFL1 / Fold change vs veh, UFL1 / RFU, COG3 / Fold change vs veh, COG3 / RFU, DIAPH2 / Fold change vs veh, DIAPH2 / RFU, SKA2 / Fold change vs veh, SKA2 / RFU, AFF3 / Fold change vs veh, AFF3 / RFU, LMF1 / Fold change vs veh, LMF1 / RFU, IPO11 / Fold change vs veh, IPO11 / RFU, DFFB / Fold change vs veh, DFFB / RFU, FOXP1 / Fold change vs veh, FOXP1 / RFU, CARD8 / Fold change vs veh, CARD8 / RFU, STRN3 / Fold change vs veh, STRN3 / RFU, ADK / Fold change vs veh, ADK / RFU, RASSF2 / Fold change vs veh, RASSF2 / RFU, WIPF1 / Fold change vs veh, WIPF1 / RFU, LARP1B / Fold change vs veh, LARP1B / RFU, RASA1 / Fold change vs veh, RASA1 / RFU, RB1 / Fold change vs veh, RB1 / RFU, PPFIA1 / Fold change vs veh, PPFIA1 / RFU, MAT2A / Fold change vs veh, MAT2A / RFU, CCT5 / Fold change vs veh, CCT5 / RFU, WDR92 / Fold change vs veh, WDR92 / RFU, CUX1 / Fold change vs veh, CUX1 / RFU, TTC7A / Fold change vs veh, TTC7A / RFU, TMEM135 / Fold change vs veh, TMEM135 / RFU, DEPTOR / Fold change vs veh, DEPTOR / RFU, CPM / Fold change vs veh, CPM / RFU, DNAJB6 / Fold change vs veh, DNAJB6 / RFU, CACNA2D3 / Fold change vs veh, CACNA2D3 / RFU, DTX4 / Fold change vs veh, DTX4 / RFU, TFCP2 / Fold change vs veh, TFCP2 / RFU, GMCL1 /// GMCL1P1 / Fold change vs veh, GMCL1 /// GMCL1P1 / RFU, AEBP2 / Fold change vs veh, AEBP2 / RFU, SNHG1 /// SNORD22 /// SNORD25 /// SNORD26 /// SNORD27 /// SNORD28 /// SNORD29 /// SNORD31 / Fold change vs veh, SNHG1 /// SNORD22 /// SNORD25 /// SNORD26 /// SNORD27 /// SNORD28 /// SNORD29 /// SNORD31 / Fold change (Aza/veh), C12orf56 (ProbeSet 11735607_a_at) / Fold change (ACY-1035/veh), C12orf56 (ProbeSet 11735607_a_at) / Fold change (Aza/veh), FGFR1OP (ProbeSet 11751329_s_at) / Fold change (ACY-1035/veh), FGFR1OP (ProbeSet 11751329_s_at) / Fold change (Aza/veh), VPS36 (ProbeSet 11739960_a_at) / Fold change (ACY-1035/veh), VPS36 (ProbeSet 11739960_a_at) / RFU SYPL1 (11715823_x_at) / Fold change /veh SYPL1 (11715823_x_at) / RFU IGFBP7 (11715501_s_at) / Fold change /veh IGFBP7 (11715501_s_at) / RFU REEP3 (11722064_at) / Fold change /veh REEP3 (11722064_at) / RFU IGLL1 (11728026_x_at) / Fold change /veh IGLL1 (11728026_x_at): dose or concentration left out as unconfirmed
Conditions: MV-4-11 cells, 48 hours

Structure (SMILES): Nc1ccc(-c2cccs2)cc1NC(=O)c1ccc2c(c1)cc(C1CC1)n2CCN1CCOCC1 [ACY-1035]
- RFU PLEKHG5 (11743358_a_at): 36.52 RFU
